The record followed here is ChEMBL document CHEMBL5376012, “Consensus screening for a challenging target: the quest for P-glycoprotein inhibitors” (RSC Med Chem, 2024).

The subject of assay [1] is Caco-2. The experiment in a line: Cytotoxicity against colchicine and vincristine stimulated human Caco-2 cells assessed as reduction in cell viability at 10 uM preincubated for 30 mins followed by colchicine and vincristine addition for 24 hrs by CCK-8 assay relative to control. The class given is functional. To be noted: time 24.5 hrs. (In general: Tetrazolium dyes change colour on reduction, which living cells bring about.)

Assay [2] has as its target ATP-dependent translocase ABCB1 (Homo sapiens, UniProt P08183). Description: Inhibition of human recombinant P-gp ATPase activity in isolated membranes incubated in presence of verapamil by firefly luciferase based luminescence analysis. The class given is cell membranes.
Assay [3] has as its system Caco-2. Description: Cytotoxicity against colchicine and vincristine stimulated human Caco-2 cells assessed as reduction in cell viability at 10 uM preincubated for 30 mins followed by colchicine and vincristine addition for 24 hrs by CCK-8 assay. The class given is functional, cell-based. To be noted: time 24.5 hrs.

The source made the active and inactive calls. No cut-off for these calls is given here. Some results are limits rather than exact numbers.

Chain of ATP-dependent translocase ABCB1 (P08183 whole entry): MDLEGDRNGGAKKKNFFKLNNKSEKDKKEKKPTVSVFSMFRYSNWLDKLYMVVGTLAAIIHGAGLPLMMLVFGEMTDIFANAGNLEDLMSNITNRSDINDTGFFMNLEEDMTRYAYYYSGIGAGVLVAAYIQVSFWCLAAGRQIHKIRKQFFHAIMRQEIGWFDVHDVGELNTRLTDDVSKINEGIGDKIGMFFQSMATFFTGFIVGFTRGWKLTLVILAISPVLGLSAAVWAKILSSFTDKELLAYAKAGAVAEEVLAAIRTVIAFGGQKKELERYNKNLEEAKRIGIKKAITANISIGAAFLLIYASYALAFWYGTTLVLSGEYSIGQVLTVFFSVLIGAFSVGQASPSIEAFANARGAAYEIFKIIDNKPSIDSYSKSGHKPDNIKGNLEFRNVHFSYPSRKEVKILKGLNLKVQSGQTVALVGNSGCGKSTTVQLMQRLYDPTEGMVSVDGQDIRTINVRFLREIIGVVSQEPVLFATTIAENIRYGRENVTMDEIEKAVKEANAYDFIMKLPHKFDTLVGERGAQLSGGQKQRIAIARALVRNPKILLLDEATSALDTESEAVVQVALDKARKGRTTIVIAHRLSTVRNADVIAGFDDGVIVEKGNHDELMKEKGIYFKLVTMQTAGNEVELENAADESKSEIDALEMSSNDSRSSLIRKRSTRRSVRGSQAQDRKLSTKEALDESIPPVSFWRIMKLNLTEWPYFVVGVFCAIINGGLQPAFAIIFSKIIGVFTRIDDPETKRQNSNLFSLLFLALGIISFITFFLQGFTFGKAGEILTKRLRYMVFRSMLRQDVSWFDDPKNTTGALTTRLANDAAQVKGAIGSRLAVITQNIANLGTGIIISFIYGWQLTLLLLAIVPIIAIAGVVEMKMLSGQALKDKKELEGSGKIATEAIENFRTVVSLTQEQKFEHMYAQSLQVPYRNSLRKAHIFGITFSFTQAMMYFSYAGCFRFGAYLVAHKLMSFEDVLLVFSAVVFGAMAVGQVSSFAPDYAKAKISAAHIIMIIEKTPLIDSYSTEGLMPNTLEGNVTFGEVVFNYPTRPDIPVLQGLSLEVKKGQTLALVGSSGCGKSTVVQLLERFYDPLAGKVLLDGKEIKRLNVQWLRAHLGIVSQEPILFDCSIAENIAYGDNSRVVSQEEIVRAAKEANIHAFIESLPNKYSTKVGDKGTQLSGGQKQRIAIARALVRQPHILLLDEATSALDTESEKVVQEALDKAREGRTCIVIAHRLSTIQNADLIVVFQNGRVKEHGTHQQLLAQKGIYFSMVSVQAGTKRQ

Regarding `COc1ccc(-c2coc3c4c(cc(O)c3c2=O)OC(=O)C[C@H]4c2ccc(OCc3nccn3C)c(OC)c2)cc1OC`, the Activity in the assay with Caco-2 [1] is recorded as 30%. In assay [2], the IC50 turned out to be 4.8 µM.
`COc1ccc2c(c1)[C@H](CCNC(=O)C[C@@H](C1=C(O)[C@@]3(Oc4c(Cl)c(OC)cc(OC)c4C3=O)[C@H](C)CC1=O)c1ccc(O)c(OC)c1)C(=O)N2`: the IC50 in assay [2] was over 50 µM.
For the molecule `COc1cc([C@@H](CC(=O)NCCC(=O)Nc2ccccn2)C2=C(O)[C@@]3(Oc4c(Cl)c(OC)cc(OC)c4C3=O)[C@H](C)CC2=O)ccc1O`, the Activity with Caco-2 [1] stood at 30%. The IC50 in assay [2] is 1.28 µM.
Consider `COC(=O)[C@@H](Cc1cccc([N+](=O)[O-])c1O)NC(=O)CCC(=O)OCC(=O)[C@@]1(O)CC[C@@H]2[C@@H]3CCC4=CC(=O)CC[C@]4(C)[C@@H]3CC[C@@]21C`, for which the IC50 in assay [2] worked out at 7.9 µM.
As to `CC(C)(C)OC(=O)N[C@H](Cc1ccc(OC(=O)OC(C)(C)C)cc1)C(=O)NCCCC(=O)Oc1ccc2c(=O)c(Oc3ccccc3F)coc2c1`, the IC50 in assay [2] is over 50 µM.
As to `COc1cc([C@@H](CC(=O)NCCCN2CCOCC2)C2=C(O)[C@@]3(Oc4c(Cl)c(OC)cc(OC)c4C3=O)[C@H](C)CC2=O)ccc1O`, the Activity in the assay with Caco-2 [1] was 30%. Moreover, the IC50 in assay [2] amounted to 3.31 µM.
`CC(C)C[C@H](NC(=O)[C@H]1CCCN1C(=O)[C@@H](C)NC(=O)COc1cc(O)c2c(=O)c(-c3ccc4c(c3)OCCO4)coc2c1)C(=O)CC(N)=O`: the IC50 in assay [2] is over 50 µM. In the assay with Caco-2 [3], the result was inactive.
As for `CCOC(=O)c1cccc(NC(=O)O[C@@H]2CO[C@H]3[C@@H]2OC[C@@H]3NS(=O)(=O)c2cc(OC)ccc2OC)c1`, the IC50 in assay [2] was over 50 µM. Also, the result in the assay with Caco-2 [3] was inactive.
For the molecule `O=C(O)[C@H]1O[C@@H](Oc2cc3oc(-c4ccc(O)cc4)cc(=O)c3c(O)c2O)[C@H](O)[C@@H](O)[C@@H]1O` [SCUTELLARIN], the IC50 in assay [2] is 19.7 µM.
Regarding `CC(=O)c1c(O)c(C)c(O)c2c1OC1=CC(=O)/C(=C(/C)Nc3cc(-c4nnn(CC(=O)O)n4)ccc3O)C(=O)[C@@]12C`, the Activity in the assay on Caco-2 [1] is given as 30%. The IC50 in assay [2] worked out at 3.17 µM.
The matching figures for `COc1cc(CCNC(=O)C[C@@H](C2=C(O)[C@@]3(Oc4c(Cl)c(OC)cc(OC)c4C3=O)[C@H](C)CC2=O)c2ccc(SC)cc2)c([N+](=O)[O-])cc1OC`: 30% and 2.4 µM.
For `COC(=O)C[C@@H](c1ccc(-c2cc(C(=O)O)ccc2Cl)o1)c1oc(CN2CCN(c3ccc(OC)cc3)CC2)cc(=O)c1O`, in that order: 30% and 4.99 µM.

Broadly, the IC50 is the concentration needed to halve the response being measured.
